Results: ChEMBL document CHEMBL5154672, “Design and synthesis of HDAC inhibitors to enhance the therapeutic effect of diffuse large B-cell lymphoma by improving metabolic stability and pharmacokinetic characteristics” (Eur J Med Chem, 2022)
One block for each compound: values may come before it.

How the values were obtained:
HCT-116 = experiment: Antiproliferative activity against human HCT-116 cells assessed as remaining cell activity at 2 uM incubated for 72 hrs by luminescence assay relative to control; assay type: functional
[1] = Metabolic stability in human liver microsomes assessed as half life measured for 75 to 130 mins by LC-MS/MS analysis; assay type: ADME, Microsome; conditions: time 75-130 min; for half-life: liver microsomes; for t1/2: microsomes
Histone deacetylase 1 = Histone deacetylase 1 (Homo sapiens, UniProt Q13547); experiment: Inhibition of HDAC1 (unknown origin) using RHKK(Ac)AMC fluorogenic peptide as substrate preincubated for 10 mins followed by substrate addition for 1 hr in presence of ATP by fluoroscence based assay
[2] = Metabolic stability in human liver microsomes assessed as intrinsic clearance measured for 75 to 130 mins by LC-MS/MS analysis; assay type: ADME, Microsome; conditions: time 75-130 min; for microsomal CLint: liver microsomes, read-out: CLH
TMD8 [3] = experiment: Antiproliferative activity against human TMD8 cells assessed as remaining cell activity at 2 uM incubated for 72 hrs by luminescence assay relative to control; assay type: functional
A549 [4] = experiment: Antiproliferative activity against human A549 cells assessed as remaining cell activity at 2 uM incubated for 72 hrs by luminescence assay relative to control; assay type: functional
MDA-MB-231 [5] = experiment: Antiproliferative activity against human MDA-MB-231 cells assessed as remaining cell activity at 2 uM incubated for 72 hrs by luminescence assay relative to control; assay type: functional
COLO-678 = experiment: Antiproliferative activity against human COLO-678 cells incubated for 72 hrs by luminescence assay; assay type: functional, cell-based; conditions: COLO-678, 72 h
[6] = Metabolic stability in mouse liver microsomes assessed as half life measured for 75 to 130 mins by LC-MS/MS analysis; assay type: ADME, Microsome; conditions: time 75-130 min
NCI-H441 = experiment: Antiproliferative activity against human NCI-H441 cells incubated for 72 hrs by luminescence assay; assay type: functional, cell-based; conditions: NCI-H441, 72 h
[7] = AUC (0 to infinity) in ICR mouse at 25 mg/kg, po measured upto 24 hrs by LC-MS/MS analysis; assay type: ADME, organism-based; design: time < 24 hrs, dose 25 mg/kg, route po; conditions: in vivo
[8] = Half life in ICR mouse at 25 mg/kg, po measured upto 24 hrs by LC-MS/MS analysis; assay type: ADME, organism-based; conditions: in vivo
MDA-MB-231 [9] = experiment: Antiproliferative activity against human MDA-MB-231 cells incubated for 72 hrs by luminescence assay; assay type: functional, cell-based; conditions: MDA-MB-231, 72 h
MOLT-4 = experiment: Antiproliferative activity against human MOLT-4 cells incubated for 72 hrs by luminescence assay; assay type: functional, cell-based; conditions: MOLT-4, 72 h
CWR22R = experiment: Antiproliferative activity against human 22Rv1 cells incubated for 72 hrs by luminescence assay; assay type: functional, cell-based; conditions: 22Rv1, 72 h
HT-29 = experiment: Antiproliferative activity against human HT-29 cells incubated for 72 hrs by luminescence assay; assay type: functional, cell-based; conditions: HT-29, 72 h
DOHH-2 = experiment: Antiproliferative activity against human DOHH-2 cells incubated for 72 hrs by luminescence assay; assay type: functional, cell-based; conditions: DOHH-2, 72 h
[10] = Oral bioavailability in ICR mouse at 25 mg/kg measured upto 24 hrs by LC-MS/MS analysis; assay type: ADME, organism-based; conditions: in vivo
HuT78 = experiment: Antiproliferative activity against human HuT78 cells incubated for 72 hrs by luminescence assay; assay type: functional, cell-based; conditions: HuT78, 72 h
A549 [11] = experiment: Antiproliferative activity against human A549 cells incubated for 72 hrs by luminescence assay; assay type: functional, cell-based; conditions: A549, 72 h
[12] = AUC (0 to infinity) in ICR mouse at 2 mg/kg, iv measured upto 24 hrs by LC-MS/MS analysis; assay type: ADME, organism-based; design: time < 24 hrs, dose 2 mg/kg, route iv; conditions: in vivo
[13] = MRT in ICR mouse at 25 mg/kg, po measured upto 24 hrs by LC-MS/MS analysis; assay type: ADME, organism-based; conditions: in vivo
TMD8 [14] = experiment: Antiproliferative activity against human TMD8 cells incubated for 72 hrs by luminescence assay; assay type: functional, cell-based; conditions: TMD8, 72 h
RS4-11 = experiment: Antiproliferative activity against human RS4-11 cells incubated for 72 hrs by luminescence assay; assay type: functional, cell-based; conditions: RS4-11, 72 h
[15] = Cmax in ICR mouse at 25 mg/kg, po measured upto 24 hrs by LC-MS/MS analysis; assay type: ADME, organism-based; design: time < 24 hrs, dose 25 mg/kg, route po; conditions: in vivo
CCRF-CEM = experiment: Antiproliferative activity against human CCRF-CEM cells incubated for 72 hrs by luminescence assay; assay type: functional, cell-based
Rec1 = experiment: Antiproliferative activity against human REC1 cells incubated for 72 hrs by luminescence assay; assay type: functional, cell-based; conditions: Rec1, 72 h
NCI-H460 = experiment: Antiproliferative activity against human NCI-H460 cells incubated for 72 hrs by luminescence assay; assay type: functional, cell-based; conditions: NCI-H460, 72 h
SU-DHL-2 = experiment: Antiproliferative activity against human SUDHL2 cells incubated for 72 hrs by luminescence assay; assay type: functional, cell-based; conditions: SU-DHL-2, 72 h
SK-OV-3 = experiment: Antiproliferative activity against human SK-OV-3 cells incubated for 72 hrs by luminescence assay; assay type: functional, cell-based; conditions: SK-OV-3, 72 h
786-0 = experiment: Antiproliferative activity against human 786-O cells incubated for 72 hrs by luminescence assay; assay type: functional, cell-based; conditions: 786-0, 72 h

Chain of Histone deacetylase 1 (Q13547 whole entry): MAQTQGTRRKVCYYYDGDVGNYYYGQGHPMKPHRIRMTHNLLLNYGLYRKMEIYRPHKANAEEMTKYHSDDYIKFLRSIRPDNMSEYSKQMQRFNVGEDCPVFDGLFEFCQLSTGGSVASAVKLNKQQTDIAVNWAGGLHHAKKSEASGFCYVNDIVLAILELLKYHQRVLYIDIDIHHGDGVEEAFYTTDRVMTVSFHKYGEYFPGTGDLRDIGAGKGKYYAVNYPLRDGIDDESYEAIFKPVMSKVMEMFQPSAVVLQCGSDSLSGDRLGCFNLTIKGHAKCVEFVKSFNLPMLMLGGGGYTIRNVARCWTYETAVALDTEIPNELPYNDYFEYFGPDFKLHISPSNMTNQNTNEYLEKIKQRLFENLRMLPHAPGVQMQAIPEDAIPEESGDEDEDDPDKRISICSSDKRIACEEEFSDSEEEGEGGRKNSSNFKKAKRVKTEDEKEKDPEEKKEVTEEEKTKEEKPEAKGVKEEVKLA

SMILES: Nc1ccccc1NC(=O)c1ccc(CN2CCC/C(=C\c3ccncc3)C2=O)cc1
- Activity (HCT-116): 66.57%
- half-life [1]: 7.78 h
- IC50 (Histone deacetylase 1): 0.27 µM
- microsomal CLint [2]: 2.96 µL/min/mg
- Activity (TMD8 [3]): 26.34%
- Activity (A549 [4]): 98.64%
- Activity (MDA-MB-231 [5]): 77.05%

SMILES: Nc1cc(F)ccc1NC(=O)c1ccc(CNC(=O)/C=C/c2cccnc2)cc1 [TUCIDINOSTAT]
- IC50 (COLO-678): > 10 µM
- Activity (HCT-116): 102.26%
- half-life [6]: 1.3 h
- t1/2 [1]: 6.27 h
- IC50 (NCI-H441): 2.62 µM
- AUC(0-inf) [7]: 3520 ng·h/mL
- half-life [8]: 4 h
- IC50 (MDA-MB-231 [9]): 9.52 µM
- IC50 (MOLT-4): 0.75 µM
- IC50 (CWR22R): 1.08 µM
- Intrinsic clearance in human liver microsomes [2]: 1.7 µL/min/mg
- IC50 (HT-29): 6.04 µM
- IC50 (DOHH-2): 0.53 µM
- Activity (TMD8 [3]): 5.96%
- bioavailability [10]: 20.8%
- IC50 (HuT78): 2.42 µM
- IC50 (A549 [11]): 2.79 µM
- AUC(0-inf) [12]: 1350 ng·h/mL
- MRT [13]: 4.2 h
- Activity (A549 [4]): 96.6%
- IC50 (TMD8 [14]): 0.48 µM
- IC50 (RS4-11): 0.6 µM
- Cmax [15]: 1220 ng/mL
- IC50 (CCRF-CEM): 0.83 µM
- IC50 (Rec1): 1.01 µM
- IC50 (NCI-H460): 2.34 µM
- Activity (MDA-MB-231 [5]): 69.91%
- IC50 (SU-DHL-2): 0.56 µM
- IC50 (SK-OV-3): 8.46 µM
- IC50 (786-0): 0.63 µM

SMILES: Nc1cc(F)ccc1NC(=O)c1ccc(CN2CC/C(=C\c3ccccc3)C2=O)cc1
- half-life [1]: 2.1 h
- IC50 (Histone deacetylase 1): 0.424 µM
- microsomal CLint [2]: 11.3 µL/min/mg

SMILES: Nc1cc(F)ccc1NC(=O)c1ccc(CN2CCC/C(=C\c3ccncc3)C2=O)cc1
- IC50 (Histone deacetylase 1): 2.51 µM

SMILES: Nc1cc(F)ccc1NC(=O)c1ccc(CN2CCC/C(=C\c3ccccn3)C2=O)cc1
- IC50 (Histone deacetylase 1): 1.35 µM

SMILES: Nc1cc(F)ccc1NC(=O)c1ccc(CN2CCC/C(=C\c3cccnc3)C2=O)cc1
- IC50 (Histone deacetylase 1): 2.34 µM

SMILES: Nc1ccccc1NC(=O)c1ccc(CN2CCC/C(=C\c3ccccc3Cl)C2=O)cc1
- half-life [1]: 2.48 h
- IC50 (Histone deacetylase 1): 0.396 µM
- microsomal CLint [2]: 9.3 µL/min/mg

SMILES: Nc1cc(F)ccc1NC(=O)c1ccc(CN2CCC/C(=C\c3ccccc3Cl)C2=O)cc1
- IC50 (Histone deacetylase 1): 1.09 µM

SMILES: Nc1cc(F)ccc1NC(=O)c1ccc(CN2CCC/C(=C\c3ccco3)C2=O)cc1
- IC50 (Histone deacetylase 1): 1.2 µM

SMILES: Nc1ccccc1NC(=O)c1ccc(CN2CC/C(=C\c3ccccn3)C2=O)cc1
- Activity (HCT-116): 56.41%
- IC50 (Histone deacetylase 1): 0.082 µM
- Activity (TMD8 [3]): 15.5%
- Activity (A549 [4]): 74.98%
- Activity (MDA-MB-231 [5]): 60.99%

SMILES: Nc1cc(F)ccc1NC(=O)c1ccc(CN2CCC/C(=C\c3ccccc3)C2=O)cc1
- IC50 (Histone deacetylase 1): 2.21 µM

SMILES: Nc1ccccc1NC(=O)c1ccc(CN2CCC/C(=C\c3ccc4ccccc4c3)C2=O)cc1
- IC50 (Histone deacetylase 1): 0.693 µM

SMILES: Nc1ccccc1NC(=O)c1ccc(CN2CCC/C(=C\c3cccc(Cl)c3)C2=O)cc1
- IC50 (Histone deacetylase 1): 0.636 µM

SMILES: Nc1ccccc1NC(=O)c1ccc(CN2CCC/C(=C\c3ccc(Cl)c(C(F)(F)F)c3)C2=O)cc1
- IC50 (Histone deacetylase 1): 1.49 µM

SMILES: Nc1ccccc1NC(=O)c1ccc(CN2CCC/C(=C\c3ccccc3)C2=O)cc1
- half-life [1]: 2.1 h
- IC50 (Histone deacetylase 1): 0.195 µM
- microsomal CLint [2]: 11 µL/min/mg

SMILES: Cc1ccccc1/C=C1\CCCN(Cc2ccc(C(=O)Nc3ccc(F)cc3N)cc2)C1=O
- IC50 (Histone deacetylase 1): 2.45 µM

SMILES: Nc1cc(F)ccc1NC(=O)c1ccc(CN2CC/C(=C\c3ccccn3)C2=O)cc1
- Activity (HCT-116): 121.48%
- t1/2 [1]: 15.6 h
- IC50 (Histone deacetylase 1): 0.866 µM
- Intrinsic clearance in human liver microsomes [2]: 10.2 µL/min/mg
- Activity (TMD8 [3]): 29.75%
- Activity (A549 [4]): 93.24%
- Activity (MDA-MB-231 [5]): 83.37%

SMILES: Nc1ccccc1NC(=O)c1ccc(CN2CCC/C(=C\c3ccc(Cl)c(F)c3)C2=O)cc1
- IC50 (Histone deacetylase 1): 0.572 µM

SMILES: Nc1ccccc1NC(=O)c1ccc(CN2CCC/C(=C\c3ccco3)C2=O)cc1
- Activity (HCT-116): 44.43%
- half-life [1]: 5.18 h
- IC50 (Histone deacetylase 1): 0.303 µM
- microsomal CLint [2]: 4.45 µL/min/mg
- Activity (TMD8 [3]): 5.48%
- Activity (A549 [4]): 61.8%
- Activity (MDA-MB-231 [5]): 53.88%

SMILES: Nc1cc(F)ccc1NC(=O)c1ccc(CN2CCC/C(=C\c3ccc4ccccc4c3)C2=O)cc1
- IC50 (Histone deacetylase 1): 1.2 µM

SMILES: Nc1ccccc1NC(=O)c1ccc(CN2CCC/C(=C\c3cccnc3)C2=O)cc1
- Activity (HCT-116): 57.19%
- half-life [1]: 4.6 h
- IC50 (Histone deacetylase 1): 0.219 µM
- microsomal CLint [2]: 5.02 µL/min/mg
- Activity (TMD8 [3]): 23.83%
- Activity (A549 [4]): 72.41%
- Activity (MDA-MB-231 [5]): 58.3%

The remaining lines, values ahead:

- IC50 (Histone deacetylase 1): > 10 µM
SMILES: Cc1ccc(NC(=O)c2ccc(CN3CCC/C(=C\c4ccc(Cl)cc4)C3=O)cc2)c(N)c1

- IC50 (Histone deacetylase 1): 1.96 µM
SMILES: Nc1cc(F)ccc1NC(=O)c1ccc(CN2CCC/C(=C\c3ccc(Br)cc3)C2=O)cc1

- IC50 (Histone deacetylase 1): 0.794 µM
SMILES: Cc1ccc(/C=C2\CCCN(Cc3ccc(C(=O)Nc4ccc(F)cc4N)cc3)C2=O)cc1

- IC50 (Histone deacetylase 1): 0.928 µM
SMILES: Cc1cccc(/C=C2\CCCN(Cc3ccc(C(=O)Nc4ccc(F)cc4N)cc3)C2=O)c1

- IC50 (Histone deacetylase 1): 0.617 µM
SMILES: Nc1cc(F)ccc1NC(=O)c1ccc(CN2CCC/C(=C\c3ccc(Cl)cc3)C2=O)cc1

- IC50 (Histone deacetylase 1): 0.906 µM
SMILES: COc1ccc(/C=C2\CCCN(Cc3ccc(C(=O)Nc4ccc(F)cc4N)cc3)C2=O)cc1

- half-life [1]: 2.42 h
- IC50 (Histone deacetylase 1): 0.487 µM
- microsomal CLint [2]: 9.57 µL/min/mg
SMILES: Nc1ccccc1NC(=O)c1ccc(CN2CCC/C(=C\c3ccc(Cl)cc3)C2=O)cc1

- IC50 (Histone deacetylase 1): 1.94 µM
SMILES: Nc1cc(F)ccc1NC(=O)c1ccc(CN2CCC/C(=C\c3cccc(Cl)c3)C2=O)cc1

- IC50 (Histone deacetylase 1): > 10 µM
SMILES: Nc1cc(Br)ccc1NC(=O)c1ccc(CN2CCC/C(=C\c3ccc(Cl)cc3)C2=O)cc1

- IC50 (Histone deacetylase 1): 2.63 µM
SMILES: Nc1cc(F)ccc1NC(=O)c1ccc(CN2CCC/C(=C\c3ccc(F)cc3)C2=O)cc1
